Measurements taken from the supplement of paper PMC10307832.

Assays:
Test in all cases: relative viability (nuclei count vs DMSO), 5 days (fraction); higher = more cells survive
Imatinib + Palbociclib = compound: Cc1ccc(NC(=O)c2ccc(CN3CCN(C)CC3)cc2)cc1Nc1nccc(-c2cccnc2)n1 [Imatinib] + CC(=O)c1c(C)c2cnc(Nc3ccc(N4CCNCC4)cn3)nc2n(C2CCCC2)c1=O [Palbociclib] (partner 0.5 µM)
In short: (§1)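 The day after seeding in 1536-well plates, lung cancer cell lines were treated by pin tool with a single drug, or with a fixed anchor-drug dose together with five library-drug doses (not always all listed) in √10 steps. After 5 days, a combined fix-and-stain solution (final 0.05% Triton X-100, 1% formaldehyde, 1 ug/ml Hoechst) was added. Nuclei counted on 4× images gave relative viability as treated counts over vehicle counts, reported as the median of duplicate plates.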

Imatinib + Tozasertib = compound: Cc1ccc(NC(=O)c2ccc(CN3CCN(C)CC3)cc2)cc1Nc1nccc(-c2cccnc2)n1 [Imatinib] + Cc1cc(Nc2cc(N3CCN(C)CC3)nc(Sc3ccc(NC(=O)C4CC4)cc3)n2)n[nH]1 [Tozasertib] (partner 0.1 µM)
In short: as §1

Imatinib + Foretinib = compound: Cc1ccc(NC(=O)c2ccc(CN3CCN(C)CC3)cc2)cc1Nc1nccc(-c2cccnc2)n1 [Imatinib] + COc1cc2c(Oc3ccc(NC(=O)C4(C(=O)Nc5ccc(F)cc5)CC4)cc3F)ccnc2cc1OCCCN1CCOCC1 [Foretinib] (partner 0.25 µM)
In short: as §1

Imatinib + AZD7762 = compound: Cc1ccc(NC(=O)c2ccc(CN3CCN(C)CC3)cc2)cc1Nc1nccc(-c2cccnc2)n1 [Imatinib] + NC(=O)Nc1cc(-c2cccc(F)c2)sc1C(=O)N[C@H]1CCCNC1 [AZD7762] (partner 0.2 µM)
In short: as §1

| Cell Line | relative viability (Imatinib + Palbociclib; first compound 0.02 µM) | relative viability (Imatinib + Palbociclib; first compound 0.06325 µM) | relative viability (Imatinib + Palbociclib; first compound 0.2 µM) | relative viability (Imatinib + Palbociclib; first compound 0.6325 µM) | relative viability (Imatinib + Palbociclib; first compound 2 µM) | relative viability (Imatinib + Tozasertib; first compound 0.02 µM) | relative viability (Imatinib + Tozasertib; first compound 0.06325 µM) | relative viability (Imatinib + Tozasertib; first compound 0.2 µM) | relative viability (Imatinib + Tozasertib; first compound 0.6325 µM) | relative viability (Imatinib + Tozasertib; first compound 2 µM) | relative viability (Imatinib + Foretinib; first compound 0.02 µM) | relative viability (Imatinib + Foretinib; first compound 0.06325 µM) | relative viability (Imatinib + Foretinib; first compound 0.2 µM) | relative viability (Imatinib + Foretinib; first compound 0.6325 µM) | relative viability (Imatinib + AZD7762; first compound 0.02 µM) | relative viability (Imatinib + AZD7762; first compound 0.06325 µM) | relative viability (Imatinib + AZD7762; first compound 0.2 µM) | relative viability (Imatinib + AZD7762; first compound 0.6325 µM) | relative viability (Imatinib + AZD7762; first compound 2 µM) | relative viability (Imatinib + Foretinib; first compound 2 µM) |
| --- | --- | --- | --- | --- | --- | --- | --- | --- | --- | --- | --- | --- | --- | --- | --- | --- | --- | --- | --- | --- |
| NCI-H1755 | 0.438 | 0.496 | 0.436 | 0.429 | 0.423 | 0.612 | 0.585 | 0.592 | 0.609 | 0.516 | 0.917 | 1.02 | 0.98 | 0.948 | 0.451 | 0.458 | 0.413 | 0.421 | 0.434 |  |
| NCI-H1793 | 0.293 |  | 0.315 | 0.291 | 0.307 | 0.309 |  | 0.328 | 0.223 | 0.28 | 0.827 |  | 0.919 | 0.682 | 0.463 |  | 0.279 | 0.286 | 0.197 | 0.715 |
| NCI-H1915 | 0.523 |  | 0.556 | 0.456 | 0.518 | 0.468 |  | 0.458 | 0.385 | 0.341 | 1.17 |  | 1.25 | 1.05 | 0.705 |  | 0.781 | 0.659 | 0.665 | 1.08 |
| NCI-H1944 | 0.347 | 0.306 | 0.373 | 0.316 | 0.42 | 0.259 | 0.401 | 0.253 | 0.236 | 0.262 | 0.923 | 0.946 | 0.964 | 0.851 | 0.628 | 0.556 | 0.452 | 0.37 | 0.423 | 0.852 |
| NCI-H1975 | 0.662 | 0.49 | 0.566 | 0.631 | 0.563 | 0.976 | 0.774 | 0.493 | 0.255 | 0.188 | 1.09 | 0.986 | 0.879 | 0.954 | 0.754 | 0.701 | 0.646 | 0.652 | 0.646 | 0.871 |
| NCI-H1993 | 0.684 | 0.677 | 0.674 | 0.723 | 0.699 | 0.636 | 0.632 | 0.591 | 0.581 | 0.588 | 0.817 | 0.886 | 0.783 | 0.705 | 1.08 | 0.728 | 0.724 | 0.736 | 0.701 | 0.756 |
| NCI-H2085 | 0.447 | 0.45 | 0.506 | 0.481 | 0.47 | 0.823 | 0.795 | 0.877 | 0.553 | 0.489 |  | 0.941 | 1.02 | 1.01 | 1.03 | 0.87 |  | 1.14 | 0.879 | 0.972 |
| NCI-H2087 | 0.192 |  | 0.188 | 0.243 |  | 0.247 |  | 0.206 | 0.202 | 0.183 | 1.2 |  |  | 1.05 | 1.33 |  | 1.58 | 1.35 |  | 0.976 |
| NCI-H2126 | 0.375 | 0.352 | 0.37 | 0.368 | 0.321 | 0.921 |  | 0.872 | 0.352 | 0.739 | 1.36 | 0.958 | 1.31 | 1.02 |  | 0.668 | 1.03 | 0.894 | 0.981 |  |
| NCI-H2170 | 0.399 | 0.438 | 0.431 | 0.408 | 0.382 | 0.872 | 0.872 | 0.752 | 0.585 | 0.712 | 1.01 | 1.03 | 0.996 | 1.02 | 0.94 | 0.77 | 0.86 | 0.745 | 0.773 | 1 |
| NCI-H2342 | 0.506 | 0.586 | 0.504 | 0.503 | 0.539 | 0.6 | 0.511 | 0.499 | 0.502 | 0.494 | 1.15 | 1.25 | 1.18 | 0.97 | 0.434 | 0.493 | 0.443 | 0.455 | 0.553 | 0.966 |
| NCI-H2347 | 0.498 |  | 0.425 | 0.424 | 0.405 |  | 0.521 | 0.499 | 0.446 | 0.407 |  |  | 0.905 | 0.703 | 0.824 |  | 0.848 |  | 0.657 | 1.1 |
| NCI-H2405 | 0.534 | 0.57 | 0.533 | 0.493 | 0.572 | 0.7 |  | 0.767 | 0.671 | 0.609 | 1.03 |  | 1.05 | 0.986 | 0.813 | 0.791 | 0.706 | 0.635 | 0.651 | 1.02 |
| NCI-H3122 | 0.194 | 0.19 | 0.199 | 0.192 | 0.205 | 0.376 | 0.373 | 0.514 |  | 0.383 | 0.879 | 1.12 |  | 0.887 |  |  | 1.07 | 0.926 | 1.05 | 0.984 |
| PC-3 [JPC-3] | 0.581 |  |  | 0.763 | 0.539 | 0.911 |  | 0.855 | 0.879 | 0.789 | 1.12 |  | 1.09 | 1.05 | 0.979 |  |  | 0.921 | 0.635 | 0.942 |
| PC-14 | 0.655 | 0.633 | 0.558 | 0.524 | 0.542 | 0.665 |  | 0.592 | 0.591 | 0.516 | 0.934 | 0.84 | 1.08 | 0.934 | 0.465 | 0.477 | 0.338 | 0.453 | 0.334 | 0.983 |
| RERF-LC-KJ | 1.11 | 1.23 | 1.07 | 0.981 | 1.09 | 0.527 | 0.498 | 0.476 | 0.389 | 0.305 | 0.909 | 0.757 |  | 0.794 | 1.01 | 0.523 | 1.19 | 0.88 | 0.967 | 0.834 |
